According to patent publication US20080214619A1, “Business method to treat and/or prevent a gastric acid disorder with a proton pump inhibitor (PPI) and a cholinergic agonist to induce rapid onset of PPI action with or without food” (priority 2006, published 2008):

System: acid secretion
Assay: Animal study, PPI + cholinergic stimulation: gastric acid output by titration of 30-min gastric collections in fasted, anesthetized, pylorus-ligated rats
Assay type: in vivo
Experimental: Rats are fasted overnight.
Rats are anesthetized and small laparotomy and gastrotomy are performed.
Tygon tubing placed through gastrotomy and into proximal duodenum; pylorus ligated
Tubing is placed through a small gastrotomy into the most dependent portion of the stomach; esophagogastric junction is ligated carefully to avoid vagal damage and to prevent aspiration
Gastrotomy and abdomen is closed around tubing
Stomach is gently rinsed with about 0.9% NaCl at about pH 7.
Gastric contents are collected by gravity for about 30 min, at which time is rinsed with about 5 ml of NaCl and collected; 30-min contents is titrated with about […] using radiometer automatic titrator to determine basal acid output (“BAO”)
Rats (3 per group) are randomized to 1 of 3 treatments: • A. Control—intraduodenal (ID) HCO3; • B. Carbachol about 15 μg/kg IP+ID HCO3; and • C. ID omeprazole (about 20 mg/kg) is dissolved in HCO3+carbachol about 15 μg/kg IP
Gastric contents are collected by gravity for about 30 min, at which time stomachs are rinsed with about 5 ml of NaCl and collected; contents are titrated with 0.01 M NaOH using a Radiometer pH meter; about 30-min collection is repeated ×6.

C[N+](C)(C)CCOC(N)=O [carbachol]
effect on acid secretion (carbachol about 15 μg/kg IP + ID HCO3, 3 per group): rapidly stimulates acid secretion
time at which acid secretion reaches a maximum level following administration (carbachol about 15 μg/kg IP + ID HCO3, gradually diminishes thereafter): about 90 min
